The source made the active and inactive calls.
Legend:
[1] = molecular target: T1, Intestinal-type alkaline phosphatase (Homo sapiens, UniProt P09923); experiment: human intestinal alkaline phosphatase activators, dose response, biochemical, luminescence, uHTS hits (AID 463120); type: functional
[2] = molecular target: Intestinal-type alkaline phosphatase (Mus musculus, UniProt P24822); experiment: PubChem AID 488875; type: functional
[3] = molecular target: T2, Alkaline phosphatase, tissue-nonspecific isozyme (Homo sapiens, UniProt P05186); experiment: TNAP enzyme activators, dose response, selectivity assay for human IAP activator project, biochemical, TNAP isozyme, human IAP uHTS hits (AID 488886); type: functional;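 further: potency of compounds raising TNAP activity as a selectivity check on IAP activators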
T2 sequence (P05186 whole entry): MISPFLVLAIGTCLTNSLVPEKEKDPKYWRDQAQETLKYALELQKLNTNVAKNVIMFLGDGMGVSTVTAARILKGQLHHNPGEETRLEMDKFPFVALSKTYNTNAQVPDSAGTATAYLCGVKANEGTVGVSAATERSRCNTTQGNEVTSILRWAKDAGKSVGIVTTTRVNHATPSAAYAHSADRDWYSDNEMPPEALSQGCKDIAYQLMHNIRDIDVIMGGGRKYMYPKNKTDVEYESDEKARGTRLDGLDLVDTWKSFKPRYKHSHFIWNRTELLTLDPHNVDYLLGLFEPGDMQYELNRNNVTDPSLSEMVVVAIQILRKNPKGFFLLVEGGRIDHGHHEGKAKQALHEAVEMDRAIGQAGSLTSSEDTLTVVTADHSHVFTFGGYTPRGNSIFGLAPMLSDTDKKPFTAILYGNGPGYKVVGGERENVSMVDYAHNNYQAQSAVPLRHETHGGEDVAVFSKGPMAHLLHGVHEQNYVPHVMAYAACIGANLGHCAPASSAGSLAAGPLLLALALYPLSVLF

[4] = molecular target: T1, Intestinal-type alkaline phosphatase; experiment: human IAP activators, dose response, biochemical, luminescent, uHTS hits, set 2 (AID 488817); type: functional;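 further: potency of activators that raise enzyme activity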
[5] = C. albicans growth with fluconazole, confirmation, fluorescence, retest (AID 2467); type: functional, cell-based
Vero = Vero cell cytotoxicity, cytotoxicity control for flavivirus capping enzyme inhibitors (AID 588742); type: functional; conditions: Chlorocebus sabaeus
[6] = molecular target: Matrix metalloproteinase-14 (Homo sapiens, UniProt P50281); experiment: Dose Response confirmation of uHTS hits for a small molecule inhibitors of MT1-MMP activation in a fluorescence assay set 2.; type: functional
NS3 = NS3 (Hepatitis C virus, UniProt A3EZJ3); experiment: PubChem AID 2173; parameters: species or system Hepacivirus hominis
Sequence of NS3 (A3EZJ3 whole entry): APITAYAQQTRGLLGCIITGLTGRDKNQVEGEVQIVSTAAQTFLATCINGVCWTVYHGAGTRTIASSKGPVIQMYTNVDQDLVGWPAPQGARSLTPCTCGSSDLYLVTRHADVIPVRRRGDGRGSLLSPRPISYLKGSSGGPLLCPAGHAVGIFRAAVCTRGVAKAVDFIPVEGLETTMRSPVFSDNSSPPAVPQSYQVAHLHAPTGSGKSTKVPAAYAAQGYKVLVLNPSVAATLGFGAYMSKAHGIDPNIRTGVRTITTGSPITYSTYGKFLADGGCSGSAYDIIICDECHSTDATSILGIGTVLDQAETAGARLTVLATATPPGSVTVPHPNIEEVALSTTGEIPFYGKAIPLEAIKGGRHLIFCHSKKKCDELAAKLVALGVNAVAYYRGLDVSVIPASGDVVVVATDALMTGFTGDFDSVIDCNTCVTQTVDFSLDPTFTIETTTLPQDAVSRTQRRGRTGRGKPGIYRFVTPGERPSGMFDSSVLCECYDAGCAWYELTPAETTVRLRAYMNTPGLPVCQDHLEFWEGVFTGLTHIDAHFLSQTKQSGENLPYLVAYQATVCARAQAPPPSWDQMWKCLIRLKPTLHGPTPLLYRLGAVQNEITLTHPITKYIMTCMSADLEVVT

Streptokinase A = molecular target: T3, Streptokinase A (Streptococcus pyogenes serotype M1, UniProt P10520); experiment: S. pyogenes streptokinase expression inhibitors, potency, dose response, plasminogen activation absorbance, OD405 (AID 1914); type: functional, Streptococcus pyogenes M1 GAS;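 further: secreted streptokinase activity via plasminogen activation per viability signal from cell pellet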
T3 sequence (P10520 whole entry): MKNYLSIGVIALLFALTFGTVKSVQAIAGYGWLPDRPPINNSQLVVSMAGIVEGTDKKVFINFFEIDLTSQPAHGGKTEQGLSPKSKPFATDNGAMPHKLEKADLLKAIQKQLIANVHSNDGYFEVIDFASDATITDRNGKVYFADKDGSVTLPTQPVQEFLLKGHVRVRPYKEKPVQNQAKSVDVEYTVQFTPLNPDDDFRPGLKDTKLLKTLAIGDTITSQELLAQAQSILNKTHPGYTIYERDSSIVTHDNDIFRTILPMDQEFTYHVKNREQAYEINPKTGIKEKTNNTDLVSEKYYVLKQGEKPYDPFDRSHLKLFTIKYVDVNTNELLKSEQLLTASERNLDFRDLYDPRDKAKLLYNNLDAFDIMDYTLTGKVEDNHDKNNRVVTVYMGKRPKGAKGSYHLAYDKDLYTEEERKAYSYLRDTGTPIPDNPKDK

[7] = molecular target: RNA-editing ligase 1, mitochondrial (Trypanosoma brucei brucei, UniProt P86926); experiment: TbREL1 ligase inhibitors, dose response, biochemical, fluorescence, Trypanosoma brucei (AID 1117295); type: functional
Sequence of RNA-editing ligase 1, mitochondrial (P86926 whole entry): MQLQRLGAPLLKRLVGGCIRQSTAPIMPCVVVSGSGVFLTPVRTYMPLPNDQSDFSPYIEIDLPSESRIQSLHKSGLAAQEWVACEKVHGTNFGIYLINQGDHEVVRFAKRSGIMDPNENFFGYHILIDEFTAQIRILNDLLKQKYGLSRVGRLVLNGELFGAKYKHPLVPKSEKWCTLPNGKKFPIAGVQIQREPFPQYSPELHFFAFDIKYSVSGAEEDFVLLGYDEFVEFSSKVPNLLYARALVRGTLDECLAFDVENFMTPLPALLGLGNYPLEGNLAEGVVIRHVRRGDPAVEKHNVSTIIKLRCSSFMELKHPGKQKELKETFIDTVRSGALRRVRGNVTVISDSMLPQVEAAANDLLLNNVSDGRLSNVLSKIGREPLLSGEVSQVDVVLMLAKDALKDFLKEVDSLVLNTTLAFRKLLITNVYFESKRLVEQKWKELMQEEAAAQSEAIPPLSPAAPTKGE

[8] = molecular target: 1-phosphatidylinositol 4,5-bisphosphate phosphodiesterase beta-3 (Homo sapiens, UniProt Q01970); experiment: Fluorescence-based biochemical high throughput dose response assay to identify inhibitors of phospholipase C isozymes (PLC-B3).
[9] = molecular target: Lysine-specific demethylase 4A (Homo sapiens, UniProt O75164); experiment: JMJD2A histone demethylase inhibitors, dose response, selectivity assay for GASC-1 inhibitor project, biochemical, DELFIA europium, cherry-picked samples (AID 488840)
Sequence of Lysine-specific demethylase 4A (O75164 whole entry): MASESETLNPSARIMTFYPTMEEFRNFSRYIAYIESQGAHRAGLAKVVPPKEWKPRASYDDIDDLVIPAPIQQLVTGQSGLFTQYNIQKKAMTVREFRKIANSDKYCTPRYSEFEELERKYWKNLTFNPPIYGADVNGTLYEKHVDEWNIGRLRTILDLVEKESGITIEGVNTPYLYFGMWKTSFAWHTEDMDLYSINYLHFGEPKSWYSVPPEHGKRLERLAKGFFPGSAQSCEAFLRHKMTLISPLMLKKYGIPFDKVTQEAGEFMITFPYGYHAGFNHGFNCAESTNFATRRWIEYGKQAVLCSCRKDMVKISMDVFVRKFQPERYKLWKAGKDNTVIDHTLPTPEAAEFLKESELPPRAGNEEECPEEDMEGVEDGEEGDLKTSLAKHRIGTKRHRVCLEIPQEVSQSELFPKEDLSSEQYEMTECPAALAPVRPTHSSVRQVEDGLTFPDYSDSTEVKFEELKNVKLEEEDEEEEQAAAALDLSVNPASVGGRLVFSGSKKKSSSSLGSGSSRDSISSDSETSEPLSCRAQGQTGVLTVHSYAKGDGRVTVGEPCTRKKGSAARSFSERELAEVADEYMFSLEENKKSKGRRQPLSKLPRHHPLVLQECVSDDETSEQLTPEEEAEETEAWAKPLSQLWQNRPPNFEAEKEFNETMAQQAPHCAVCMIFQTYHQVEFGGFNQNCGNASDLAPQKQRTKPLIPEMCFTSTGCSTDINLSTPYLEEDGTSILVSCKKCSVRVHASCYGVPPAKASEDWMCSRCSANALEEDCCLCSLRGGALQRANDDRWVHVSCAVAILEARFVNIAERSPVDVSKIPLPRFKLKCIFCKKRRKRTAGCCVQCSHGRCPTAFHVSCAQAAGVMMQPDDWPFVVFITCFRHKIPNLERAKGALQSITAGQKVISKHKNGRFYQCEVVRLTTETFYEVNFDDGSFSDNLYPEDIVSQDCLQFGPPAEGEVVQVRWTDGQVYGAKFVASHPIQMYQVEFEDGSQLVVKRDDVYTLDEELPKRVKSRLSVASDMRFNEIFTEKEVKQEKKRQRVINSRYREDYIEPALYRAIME

[10] = molecular target: Heat shock protein HSP 90-alpha (Homo sapiens, UniProt P07900); type: functional, organism-based
Caspase-9 = Caspase-9 (Homo sapiens, UniProt P55211); experiment: caspase-9 enzyme inhibition, dose response, selectivity assay for caspase-6 inhibitor project, biochemical, fluorescence, plate reader, cherry-picked samples (AID 743293)
Sequence of Caspase-9 (P55211 1-315 limits assumed): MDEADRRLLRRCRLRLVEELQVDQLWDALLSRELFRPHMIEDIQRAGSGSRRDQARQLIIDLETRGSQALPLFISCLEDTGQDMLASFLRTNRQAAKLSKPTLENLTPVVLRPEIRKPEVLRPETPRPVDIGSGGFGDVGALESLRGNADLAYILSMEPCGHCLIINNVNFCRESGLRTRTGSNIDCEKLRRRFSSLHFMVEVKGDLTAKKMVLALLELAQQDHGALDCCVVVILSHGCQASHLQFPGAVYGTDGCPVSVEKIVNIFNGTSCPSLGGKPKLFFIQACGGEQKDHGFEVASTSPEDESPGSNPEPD
Sequence of Caspase-9 (P55211 331-416 limits assumed): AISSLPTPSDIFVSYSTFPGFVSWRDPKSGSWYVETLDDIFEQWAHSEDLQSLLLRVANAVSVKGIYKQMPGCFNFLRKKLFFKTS

Caspase-3 = molecular target: T4, Caspase-3 (Homo sapiens, UniProt P42574); experiment: caspase-3 enzyme inhibitors, selectivity check, dose response, selectivity assay for caspase-6 allosteric inhibitor project, biochemical, fluorescence, cherry-picked samples (AID 743291)
T4 sequence (P42574 whole entry): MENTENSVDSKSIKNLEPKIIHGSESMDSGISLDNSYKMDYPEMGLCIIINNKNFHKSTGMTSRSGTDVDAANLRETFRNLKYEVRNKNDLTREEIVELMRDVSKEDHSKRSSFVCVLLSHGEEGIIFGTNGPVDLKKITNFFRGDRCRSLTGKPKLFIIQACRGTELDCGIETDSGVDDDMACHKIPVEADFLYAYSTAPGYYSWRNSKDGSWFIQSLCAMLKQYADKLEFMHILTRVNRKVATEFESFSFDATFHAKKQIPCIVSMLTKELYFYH

Large T antigen = Large T antigen (Simian virus 40, UniProt P03070); type: functional, Betapolyomavirus macacae;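 further: Confirmatory-stage PubChem screen for compounds that inhibit SV40 T antigen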
Sequence of Large T antigen (P03070 whole entry): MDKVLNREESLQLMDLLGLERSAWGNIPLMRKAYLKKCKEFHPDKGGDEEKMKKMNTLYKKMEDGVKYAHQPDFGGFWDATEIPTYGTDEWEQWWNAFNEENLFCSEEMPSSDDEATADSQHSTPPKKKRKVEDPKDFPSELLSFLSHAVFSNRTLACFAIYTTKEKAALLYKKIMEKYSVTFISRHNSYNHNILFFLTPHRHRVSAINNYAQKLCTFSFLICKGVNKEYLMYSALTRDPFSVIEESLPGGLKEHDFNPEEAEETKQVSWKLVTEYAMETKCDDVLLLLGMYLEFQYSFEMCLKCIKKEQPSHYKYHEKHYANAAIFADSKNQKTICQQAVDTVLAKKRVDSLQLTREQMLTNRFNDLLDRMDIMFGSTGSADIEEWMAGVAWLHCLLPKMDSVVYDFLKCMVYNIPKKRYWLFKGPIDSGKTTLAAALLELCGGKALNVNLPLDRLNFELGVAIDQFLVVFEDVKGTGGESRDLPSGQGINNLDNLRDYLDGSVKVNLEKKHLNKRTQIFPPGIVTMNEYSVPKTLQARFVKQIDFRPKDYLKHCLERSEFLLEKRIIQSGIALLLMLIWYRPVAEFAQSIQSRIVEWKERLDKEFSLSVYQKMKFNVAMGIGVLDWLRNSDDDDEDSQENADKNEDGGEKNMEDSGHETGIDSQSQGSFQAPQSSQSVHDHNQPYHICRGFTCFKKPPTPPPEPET

Caspase-6 = molecular target: T5, Caspase-6 (Homo sapiens, UniProt P55212); experiment: human caspase-6 inhibitors, dose response, biochemical, VEID-R110 fluorescence, cherry-pick (AID 720632)
T5 sequence (P55212 whole entry): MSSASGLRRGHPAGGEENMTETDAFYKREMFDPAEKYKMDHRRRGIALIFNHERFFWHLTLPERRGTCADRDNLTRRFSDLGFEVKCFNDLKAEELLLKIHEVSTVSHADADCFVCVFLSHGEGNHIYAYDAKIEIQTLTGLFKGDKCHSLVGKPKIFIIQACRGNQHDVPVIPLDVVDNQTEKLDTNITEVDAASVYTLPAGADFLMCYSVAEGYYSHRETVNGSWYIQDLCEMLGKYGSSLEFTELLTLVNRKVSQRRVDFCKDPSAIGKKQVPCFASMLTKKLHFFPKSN

Troponin, cardiac muscle = Troponin, cardiac muscle (Homo sapiens, UniProt P19429+P45379+P63316); experiment: inhibitors of cardiac thin filament calcium sensitivity, dose response, biochemical, fluorescence, cardiac regulated thin filaments, triplicate IC50 (AID 504742); type: protein-complex assay
[11] = system: Streptococcus sp. 'group A'; experiment: growth inhibition of control SK(-) GAS strain, dose response, counter-screen for streptokinase expression inhibitor project, luminescence, kanamycin, BacTiterGlo, confirmation (AID 1900); type: functional, organism-based
[12] = molecular target: T6, Lysine-specific demethylase 4C (Homo sapiens, UniProt Q9H3R0); experiment: GASC-1 (JMJD2C) histone demethylase inhibitors, dose response, biochemical, DELFIA europium, cherry-picked samples (AID 488835); type: functional
T6 sequence (Q9H3R0 whole entry): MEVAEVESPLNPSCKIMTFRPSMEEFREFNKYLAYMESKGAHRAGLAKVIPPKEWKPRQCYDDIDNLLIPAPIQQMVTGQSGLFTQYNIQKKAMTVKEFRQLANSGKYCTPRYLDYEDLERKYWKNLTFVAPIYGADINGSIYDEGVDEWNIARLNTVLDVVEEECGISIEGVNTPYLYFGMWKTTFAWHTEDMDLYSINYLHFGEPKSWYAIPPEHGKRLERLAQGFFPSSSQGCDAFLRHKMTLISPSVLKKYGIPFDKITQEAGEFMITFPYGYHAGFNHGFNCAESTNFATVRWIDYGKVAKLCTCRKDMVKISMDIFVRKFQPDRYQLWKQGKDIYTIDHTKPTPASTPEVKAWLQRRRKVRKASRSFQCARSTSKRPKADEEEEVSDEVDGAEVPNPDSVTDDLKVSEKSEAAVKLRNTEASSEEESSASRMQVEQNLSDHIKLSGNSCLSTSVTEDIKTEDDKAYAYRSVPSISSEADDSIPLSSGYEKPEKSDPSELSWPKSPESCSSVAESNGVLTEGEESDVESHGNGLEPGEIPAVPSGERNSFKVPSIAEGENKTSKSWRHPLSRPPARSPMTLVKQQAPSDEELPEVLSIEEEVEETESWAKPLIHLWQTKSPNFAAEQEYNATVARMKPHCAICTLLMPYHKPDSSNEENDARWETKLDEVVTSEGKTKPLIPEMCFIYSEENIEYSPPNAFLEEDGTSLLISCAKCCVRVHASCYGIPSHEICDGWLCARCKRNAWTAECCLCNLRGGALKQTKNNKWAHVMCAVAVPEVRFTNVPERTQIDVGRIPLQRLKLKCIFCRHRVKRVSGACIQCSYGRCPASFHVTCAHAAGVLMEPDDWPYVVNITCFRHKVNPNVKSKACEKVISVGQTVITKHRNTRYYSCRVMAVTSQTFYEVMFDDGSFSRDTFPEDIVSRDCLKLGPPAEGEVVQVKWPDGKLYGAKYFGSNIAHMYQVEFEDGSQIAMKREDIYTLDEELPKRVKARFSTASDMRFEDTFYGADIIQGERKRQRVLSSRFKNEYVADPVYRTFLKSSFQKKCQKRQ

[13] = molecular target: 1-phosphatidylinositol 4,5-bisphosphate phosphodiesterase gamma-1 (Homo sapiens, UniProt P19174); experiment: Counterscreen for inhibitors of phospholipase C isozymes (PLC-B3): Fluorescence-based biochemical high throughput dose response assay to identify inhibitors of phospholipase C isozymes (PLC-gamma1).
Caspase-8 = Caspase-8 (Homo sapiens, UniProt Q14790); experiment: caspase-8 inhibition counter-screen, dose response, selectivity assay for caspase-6 inhibitor project, biochemical, Z-IETD-R110 fluorescence, cherry-picked samples (AID 743294)
Caspase-7 = Caspase-7 (Homo sapiens, UniProt P55210); experiment: human caspase-7 inhibitors, dose response, selectivity assay for caspase-6 inhibitor project, biochemical, DEVD-R110 fluorescence, cherry-pick (AID 743295)
Sequence of Caspase-7 (P55210 24-198 limits assumed): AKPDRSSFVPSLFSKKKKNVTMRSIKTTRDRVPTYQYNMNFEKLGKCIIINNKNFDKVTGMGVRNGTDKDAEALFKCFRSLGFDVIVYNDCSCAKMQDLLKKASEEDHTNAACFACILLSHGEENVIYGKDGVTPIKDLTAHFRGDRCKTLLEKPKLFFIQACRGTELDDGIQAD
Sequence of Caspase-7 (P55210 207-303 limits assumed): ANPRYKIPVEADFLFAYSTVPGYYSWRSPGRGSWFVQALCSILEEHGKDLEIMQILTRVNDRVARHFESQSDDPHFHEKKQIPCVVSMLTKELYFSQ

Streptococcus = experiment: Group A Streptococcus viability loss, dose response, counter-screen for streptokinase expression inhibitor project, luminescence, BacTiterGlo (AID 1915); type: functional, organism-based;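 further: potency for reduction of bacterial viability or growth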
[14] = NIH-3T3 fibroblast cytotoxicity, dose response, cytotoxicity control, cell-based, fluorescence, Alamar Blue, secondary assay (AID 2327); type: functional;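 further: NIH-3T3 mouse fibroblasts cultured with fluconazole at 8 µg/mL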
[15] = molecular target: T7, Mannose-6-phosphate isomerase (Homo sapiens, UniProt P34949); experiment: PMI enzyme inhibitors, confirmation, biochemical, fluorescence intensity (AID 1535)
T7 sequence (P34949 whole entry): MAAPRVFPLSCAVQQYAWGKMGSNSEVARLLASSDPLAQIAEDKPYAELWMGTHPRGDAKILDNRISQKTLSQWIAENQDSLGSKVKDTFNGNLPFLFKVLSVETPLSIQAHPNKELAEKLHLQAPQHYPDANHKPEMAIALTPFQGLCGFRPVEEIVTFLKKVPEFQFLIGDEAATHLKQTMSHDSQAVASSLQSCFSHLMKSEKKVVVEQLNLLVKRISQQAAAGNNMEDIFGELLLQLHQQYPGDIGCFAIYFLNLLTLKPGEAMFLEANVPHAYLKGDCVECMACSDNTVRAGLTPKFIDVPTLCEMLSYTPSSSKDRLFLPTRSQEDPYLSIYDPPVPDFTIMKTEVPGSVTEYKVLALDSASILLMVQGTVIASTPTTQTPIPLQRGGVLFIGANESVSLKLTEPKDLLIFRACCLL

Phosphomannomutase 2 = Phosphomannomutase 2 (Homo sapiens, UniProt O15305); experiment: Counter screen SAR assay for PMM2 inhibitors via a fluorescence intensity assay. [Related pubchem assays (depositor defined):AID1545, AID1574]
Sequence of Phosphomannomutase 2 (O15305 whole entry): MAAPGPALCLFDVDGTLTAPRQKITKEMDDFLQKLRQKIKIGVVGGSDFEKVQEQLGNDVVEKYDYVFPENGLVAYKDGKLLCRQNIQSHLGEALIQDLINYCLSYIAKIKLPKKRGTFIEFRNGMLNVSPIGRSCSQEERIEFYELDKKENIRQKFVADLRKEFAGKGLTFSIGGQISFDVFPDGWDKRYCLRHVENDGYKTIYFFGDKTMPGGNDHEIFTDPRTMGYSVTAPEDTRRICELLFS

T1 sequence (P09923 whole entry): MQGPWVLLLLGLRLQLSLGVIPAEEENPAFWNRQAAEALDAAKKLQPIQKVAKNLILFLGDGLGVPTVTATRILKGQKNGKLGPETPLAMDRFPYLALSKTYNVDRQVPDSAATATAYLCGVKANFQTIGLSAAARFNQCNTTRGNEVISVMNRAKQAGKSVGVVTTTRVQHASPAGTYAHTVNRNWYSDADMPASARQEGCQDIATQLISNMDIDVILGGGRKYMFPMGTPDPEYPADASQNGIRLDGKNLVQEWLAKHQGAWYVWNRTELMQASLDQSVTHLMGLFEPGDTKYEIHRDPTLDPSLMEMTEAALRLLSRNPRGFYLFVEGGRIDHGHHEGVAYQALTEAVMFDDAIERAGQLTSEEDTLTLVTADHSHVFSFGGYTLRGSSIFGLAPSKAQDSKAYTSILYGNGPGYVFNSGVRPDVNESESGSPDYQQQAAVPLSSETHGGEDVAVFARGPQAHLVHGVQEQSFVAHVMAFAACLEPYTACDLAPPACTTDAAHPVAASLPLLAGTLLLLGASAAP
Sequence of Intestinal-type alkaline phosphatase (Mus musculus, UniProt P24822) (P24822 whole entry): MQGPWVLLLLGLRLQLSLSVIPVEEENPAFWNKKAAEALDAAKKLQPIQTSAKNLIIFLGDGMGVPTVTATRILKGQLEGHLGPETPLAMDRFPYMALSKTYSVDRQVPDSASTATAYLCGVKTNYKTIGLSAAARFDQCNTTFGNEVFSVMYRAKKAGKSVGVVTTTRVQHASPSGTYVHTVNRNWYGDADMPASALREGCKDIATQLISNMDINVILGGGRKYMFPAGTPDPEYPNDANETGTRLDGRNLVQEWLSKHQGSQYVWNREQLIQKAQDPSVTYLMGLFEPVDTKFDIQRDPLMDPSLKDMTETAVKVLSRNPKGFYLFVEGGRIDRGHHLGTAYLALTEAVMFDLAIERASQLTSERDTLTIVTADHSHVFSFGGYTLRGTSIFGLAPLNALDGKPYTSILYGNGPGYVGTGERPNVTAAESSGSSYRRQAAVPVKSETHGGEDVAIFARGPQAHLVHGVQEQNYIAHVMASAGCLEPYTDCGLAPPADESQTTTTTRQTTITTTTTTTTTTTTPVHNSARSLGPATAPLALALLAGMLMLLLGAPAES

COc1ccccc1CNC(=O)CN(c1ccc(C)cc1)S(=O)(=O)c1c(C)noc1C
EC50 [1]: 86 µM (active) | EC50 [2]: 67.5 µM (active) | EC50 [3]: 76.2 µM (active) | EC50 [4]: 99 µM (active)

O=c1cc2oc3cc(O)c(O)cc3c(-c3ccccc3[N+](=O)[O-])c-2cc1O
EC50 [5]: 1.07 µM (active) | CC50 (Vero): 12.2 µM (active) | IC50 [6]: 17.9 µM (active) | IC50 (NS3): 0.99 µM (active) | EC50 (Streptokinase A): 11.2 µM (active) | IC50 [7]: > 96.6 µM (inactive) | IC50 [8]: > 123 µM (inactive) | AC50 [9]: 2.01 µM (active) | AC50 [10]: 2.9 µM (active) | AC50 (Caspase-9): > 70 µM (inactive) | AC50 (Caspase-3): 0.122 µM (active) | IC50 (Large T antigen): 5.91 µM (active) | AC50 (Caspase-6): 0.018 µM (active) | IC50 (Troponin, cardiac muscle): 1.64 µM (active) | EC50 [11]: 7.94 µM (active) | AC50 [12]: 1.97 µM (active) | IC50 [13]: 67.5 µM (inactive) | AC50 (Caspase-8): 41.3 µM (active) | AC50 (Caspase-7): 1.33 µM (active) | EC50 (Streptococcus): 10.2 µM (active) | EC50 [14]: 8.25 µM (active)

COc1ccc(/N=c2\ssnc2Cl)cc1OC
IC50 [15]: 36.7 µM (active) | IC50 (Phosphomannomutase 2): > 100 µM (inactive)

— ChEMBL document CHEMBL1201862, “PubChem BioAssay data set” (2004)
